Reference: patent US9212186B2, “Bicyclic pyrazole LRRK2 small molecule inhibitors” (Genentech, Inc., priority 2012, dated 2015)

These compounds were tested against LRRK2 G2019S (Homo sapiens (Human), UniProt Q5S007, G2019S) (assay: In Vitro LRRK2 Lanthascreen Binding Assay).
Experimental: In Vitro LRRK2 Lanthascreen Binding Assay
This assay was used to determine a compound's potency in inhibiting activity of LRRK2 by determining, Kiapp, IC50, or percent inhibition values. In 384 well proxiplates F black, shallow well plates LRRK2, Eu-anti-GST-antibody, Alexa Fluor® Kinase tracer 236 and test compound were incubated together.
Binding of the Alexa Fluor® “tracer” to a kinase is detected by addition of a Eu-labeled anti-GST antibody. Binding of the tracer and antibody to a kinase results in a high degree of FRET, whereas displacement of the tracer with a kinase inhibitor results in a loss of FRET.
Assay conditions and materials used were as follows:
Final Assay Conditions: • GST-LRRK2 G2019S 10 nM
Eu-anti-GST-antibody 2 nM • Kinase tracer 236 8.5 nM • Kinase reaction time: 1 hour • Temperature: ambient • Total volume: 15 μl • DMSO 1%
384 well proxiplates F black shallow well Perkin Elmer cat #6008260
Eu-labeled anti-GST antibody Invitrogen cat # PV5594
Alexa Fluor® Kinase tracer 236 Invitrogen cat #PV5592 • TRIS-HCl Sigma cat # T3253 • EGTA Sigma cat # E3889 • Brij-35: Sigma cat # B4184 (30% w/v) • DMSO: Sigma cat # D8418 • MgCl2 Sigma cat # M9272
Reaction Buffer: H2O/50 mM Tris, pH 7.4/10 mM MgCl2/1 mM EGTA/0.01% Brij 35
Compound Plate Preparation:
Serially dilute test compounds (10 mM stock) 1:3.16 (20 ul+43.2 ul) in 100% DMSO. 12 pt curve. Dilute each concentration 1:33.3 (3 ul+97 ul) in reaction buffer. Stamp 5 ul to assay plate. Final top test concentration 100 uM
Total and Blank Preparation:
In Reaction Buffer, 5 ul of DMSO (3%) was added to total and blank wells and 5 ul of Eu-labeled anti-GST antibody (6 nM) was added to blank wells. Add 5 ul LRRK2 (30 nM)/Eu-labeled anti-GST antibody (6 nM) mix to compound and total wells.
Add 5 ul kinase tracer (25.5 nM) to all wells. Incubate plates at room temperature for 1 hour on a plate shaker (gentle shaking). Read on Perkin Elmer EnVision reader HTRF protocol
Calculate ratio: (665/620)*10000. Subtract mean background values from all data points. Calculate % of control for each test value. Plot % of control vs Compound concentration. Calculate Ki Value (xlfit curve fitting—Morrison equation). Results expressed as a Ki in μM. Equation for Ki: Y=V0*(1−((x+Ki*(1+S/Km)+Et)/(2*Et)−(((x+Ki*(1+S/Km)+Et)^2−(4*Et*x))^0.5)/(2*Et)))
Tracer concentration (S)=8.5 nM

Chain of LRRK2 G2019S (Q5S007 whole entry G2019S): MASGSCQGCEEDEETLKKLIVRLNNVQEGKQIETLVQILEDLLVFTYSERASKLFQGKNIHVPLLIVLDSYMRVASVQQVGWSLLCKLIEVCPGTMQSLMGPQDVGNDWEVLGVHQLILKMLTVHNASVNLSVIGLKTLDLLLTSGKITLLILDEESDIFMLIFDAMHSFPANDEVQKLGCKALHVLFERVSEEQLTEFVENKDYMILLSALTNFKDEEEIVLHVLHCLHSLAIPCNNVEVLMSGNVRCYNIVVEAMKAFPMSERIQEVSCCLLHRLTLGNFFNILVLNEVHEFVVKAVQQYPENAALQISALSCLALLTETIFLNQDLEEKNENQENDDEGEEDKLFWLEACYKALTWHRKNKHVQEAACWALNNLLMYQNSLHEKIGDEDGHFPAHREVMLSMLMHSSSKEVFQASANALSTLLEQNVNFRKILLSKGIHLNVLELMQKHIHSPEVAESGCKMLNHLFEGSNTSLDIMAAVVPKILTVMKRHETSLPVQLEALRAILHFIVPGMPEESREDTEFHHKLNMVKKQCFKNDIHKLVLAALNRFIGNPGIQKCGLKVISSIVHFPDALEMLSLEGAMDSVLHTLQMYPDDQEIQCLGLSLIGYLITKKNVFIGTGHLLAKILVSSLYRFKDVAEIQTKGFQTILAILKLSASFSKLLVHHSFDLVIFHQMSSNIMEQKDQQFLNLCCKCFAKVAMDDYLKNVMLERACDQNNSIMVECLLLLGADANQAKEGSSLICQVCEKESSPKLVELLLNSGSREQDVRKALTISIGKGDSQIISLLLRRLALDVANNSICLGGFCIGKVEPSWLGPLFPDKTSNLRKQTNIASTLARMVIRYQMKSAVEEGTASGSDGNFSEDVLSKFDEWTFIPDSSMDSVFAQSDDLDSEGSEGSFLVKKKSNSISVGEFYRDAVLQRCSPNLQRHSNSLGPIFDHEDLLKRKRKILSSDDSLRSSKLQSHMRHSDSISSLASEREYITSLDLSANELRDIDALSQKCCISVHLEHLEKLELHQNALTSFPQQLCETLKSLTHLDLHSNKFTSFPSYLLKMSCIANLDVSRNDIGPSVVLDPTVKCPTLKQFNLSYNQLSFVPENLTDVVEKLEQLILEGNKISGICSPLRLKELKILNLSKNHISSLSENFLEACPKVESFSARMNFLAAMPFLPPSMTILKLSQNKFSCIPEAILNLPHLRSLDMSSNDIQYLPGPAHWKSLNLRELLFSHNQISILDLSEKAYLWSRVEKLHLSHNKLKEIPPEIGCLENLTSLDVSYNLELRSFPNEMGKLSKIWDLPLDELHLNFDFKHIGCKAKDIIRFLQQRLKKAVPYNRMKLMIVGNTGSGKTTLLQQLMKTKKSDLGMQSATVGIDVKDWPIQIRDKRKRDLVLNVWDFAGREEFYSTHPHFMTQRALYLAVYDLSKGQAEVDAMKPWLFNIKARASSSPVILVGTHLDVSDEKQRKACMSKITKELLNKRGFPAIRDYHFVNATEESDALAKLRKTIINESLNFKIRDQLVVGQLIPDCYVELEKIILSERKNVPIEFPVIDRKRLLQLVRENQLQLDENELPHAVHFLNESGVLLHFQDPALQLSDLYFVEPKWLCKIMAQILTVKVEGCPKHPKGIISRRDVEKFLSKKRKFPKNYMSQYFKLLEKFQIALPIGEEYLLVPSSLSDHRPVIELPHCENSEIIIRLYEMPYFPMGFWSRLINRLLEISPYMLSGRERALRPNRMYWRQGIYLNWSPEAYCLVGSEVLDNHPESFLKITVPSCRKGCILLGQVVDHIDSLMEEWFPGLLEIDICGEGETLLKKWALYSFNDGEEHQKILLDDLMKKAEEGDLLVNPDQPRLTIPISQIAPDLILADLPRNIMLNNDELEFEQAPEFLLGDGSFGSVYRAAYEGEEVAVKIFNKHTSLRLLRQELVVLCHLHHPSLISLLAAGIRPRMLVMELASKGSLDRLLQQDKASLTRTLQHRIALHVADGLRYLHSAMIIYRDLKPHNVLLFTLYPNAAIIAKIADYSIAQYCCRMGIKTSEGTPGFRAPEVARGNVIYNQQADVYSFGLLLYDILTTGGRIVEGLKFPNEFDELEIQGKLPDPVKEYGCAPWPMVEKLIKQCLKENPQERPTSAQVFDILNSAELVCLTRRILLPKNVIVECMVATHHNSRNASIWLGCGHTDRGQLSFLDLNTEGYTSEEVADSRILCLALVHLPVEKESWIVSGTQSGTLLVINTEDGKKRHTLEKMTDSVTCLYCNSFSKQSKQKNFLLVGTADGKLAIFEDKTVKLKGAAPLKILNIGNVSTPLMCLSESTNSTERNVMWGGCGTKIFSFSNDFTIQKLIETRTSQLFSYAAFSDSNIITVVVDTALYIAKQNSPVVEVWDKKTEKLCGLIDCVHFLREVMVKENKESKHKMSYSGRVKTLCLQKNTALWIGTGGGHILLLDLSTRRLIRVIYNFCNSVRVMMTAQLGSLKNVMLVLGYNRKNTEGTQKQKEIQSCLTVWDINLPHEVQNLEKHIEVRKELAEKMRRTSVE

Question: `CNc1nc(Nc2cnn3c2C(C)OCC3(C)C)ncc1C(F)(F)F` (single isomer, unassigned) [Example 12, N4-methyl-5-(trifluoromethyl)-N2-(4,7,7-trimethyl-6,7-dihydro-4H-pyrazolo[5,1-c][1,4]oxazin-3-yl)pyrimidine-2,4-diamine] was tested. Which Ki did it give?
Answer: 2.6 nM

Question: `CCNc1nc(Nc2cnn3c2C(C)OCC3)ncc1C(F)(F)F` (single isomer, unassigned) [Example 14, N4-ethyl-N2-(4-methyl-6,7-dihydro-4H-pyrazolo[5,1-c][1,4]oxazin-3-yl)-5-(trifluoromethyl)pyrimidine-2,4-diamine] was tested. Which Ki did it give?
Answer: 1.2 nM

Question: With `CNc1nc(Nc2cnn3c2C(C)OCC3)ncc1C(F)(F)F` (single isomer, unassigned) [Example 16, N4-methyl-N2-(4-methyl-6,7-dihydro-4H-pyrazolo[5,1-c][1,4]oxazin-3-yl)-5-(trifluoromethyl)pyrimidine-2,4-diamine] as the compound, how does the Ki read?
Answer: 3 nM

Question: Which Ki does the source give for `CNc1nc(Nc2cnn3c2C(C)OC(C)C3)ncc1C(F)(F)F` (single isomer, unassigned) [Example 19, N2-(4,6-dimethyl-6,7-dihydro-4H-pyrazolo[5,1-c][1,4]oxazin-3-yl)-N4-methyl-5-(trifluoromethyl)pyrimidine-2,4-diamine] here?
Answer: 61.3 nM

Question: How did the Ki turn out when `CNc1nc(Nc2cnn3c2C(C)OC(C)C3)ncc1C(F)(F)F` (single isomer, unassigned) [Example 20, N2-(4,6-dimethyl-6,7-dihydro-4H-pyrazolo[5,1-c][1,4]oxazin-3-yl)-N4-methyl-5-(trifluoromethyl)pyrimidine-2,4-diamine] was run?
Answer: 5.7 nM

Question: Which Ki does the source give for `CNc1nc(Nc2cnn3c2C(C)OC(C)C3)ncc1C(F)(F)F` (single isomer, unassigned) [Example 21, N2-(4,6-dimethyl-6,7-dihydro-4H-pyrazolo[5,1-c][1,4]oxazin-3-yl)-N4-methyl-5-(trifluoromethyl)pyrimidine-2,4-diamine] here?
Answer: 390 nM

Question: `CNc1nc(Nc2cnn3c2CCCC3)ncc1C(F)(F)F` [Example 3, N4-methyl-N2-(4,5,6,7-tetrahydropyrazolo[1,5-a]pyridin-3-yl)-5-(trifluoromethyl)pyrimidine-2,4-diamine] was tested. Which Ki did it give?
Answer: 7.5 nM

Question: Which Ki does the source give for `CNc1nc(Nc2cnn3c2[C@H](C)N(C)CC3)ncc1C(F)(F)F` [Example 5, (S)-N2-(4,5-dimethyl-4,5,6,7-tetrahydropyrazolo[1,5-a]pyrazin-3-yl)-N4-methyl-5-(trifluoromethyl)pyrimidine-2,4-diamine] here?
Answer: 20 nM

Question: How did the Ki turn out when `CNc1nc(Nc2cnn3c2[C@@H](C)N(C)CC3)ncc1C(F)(F)F` [Example 6, (R)-N2-(4,5-dimethyl-4,5,6,7-tetrahydropyrazolo[1,5-a]pyrazin-3-yl)-N4-methyl-5-(trifluoromethyl)pyrimidine-2,4-diamine] was run?
Answer: 184 nM

Question: How did the Ki turn out when `CCNc1nc(Nc2cnn3c2[C@H](C)N(C)CC3)ncc1C(F)(F)F` [Example 7, (S)-N2-(4,5-dimethyl-4,5,6,7-tetrahydropyrazolo[1,5-a]pyrazin-3-yl)-N4-ethyl-5-(trifluoromethyl)pyrimidine-2,4-diamine] was run?
Answer: 9.5 nM

Question: With `CCNc1nc(Nc2cnn3c2[C@@H](C)N(C)CC3)ncc1C(F)(F)F` [Example 8, (R)-N2-(4,5-dimethyl-4,5,6,7-tetrahydropyrazolo[1,5-a]pyrazin-3-yl)-N4-ethyl-5-(trifluoromethyl)pyrimidine-2,4-diamine] as the compound, how does the Ki read?
Answer: 144 nM

Question: With `C[C@H]1c2c(Nc3ncc(C(F)(F)F)c(NC4CC4)n3)cnn2CCN1C` [Example 9, (S)-N4-cyclopropyl-N2-(4,5-dimethyl-4,5,6,7-tetrahydropyrazolo[1,5-a]pyrazin-3-yl)-5-(trifluoromethyl)pyrimidine-2,4-diamine] as the compound, how does the Ki read?
Answer: 4.9 nM

Question: With `C[C@@H]1c2c(Nc3ncc(C(F)(F)F)c(NC4CC4)n3)cnn2CCN1C` [Example 10, (R)-N4-cyclopropyl-N2-(4,5-dimethyl-4,5,6,7-tetrahydropyrazolo[1,5-a]pyrazin-3-yl)-5-(trifluoromethyl)pyrimidine-2,4-diamine] as the compound, how does the Ki read?
Answer: 44.4 nM

Question: How did the Ki turn out when `CNc1nc(Nc2cnn3c2C(C)OCC3(C)C)ncc1C(F)(F)F` (stereo not shown) [Example 11, N4-methyl-5-(trifluoromethyl)-N2-(4,7,7-trimethyl-6,7-dihydro-4H-pyrazolo[5,1-c][1,4]oxazin-3-yl)pyrimidine-2,4-diamine] was run?
Answer: 212 nM

Question: For `CCNc1nc(Nc2cnn3c2C(C)OCC3)ncc1C(F)(F)F` (stereo not shown) [Example 13, N4-ethyl-N2-(4-methyl-6,7-dihydro-4H-pyrazolo[5,1-c][1,4]oxazin-3-yl)-5-(trifluoromethyl)pyrimidine-2,4-diamine], which Ki is on record?
Answer: 47.7 nM

Question: `CNc1nc(Nc2cnn3c2C(C)OCC3)ncc1C(F)(F)F` (stereo not shown) [Example 15, N4-methyl-N2-(4-methyl-6,7-dihydro-4H-pyrazolo[5,1-c][1,4]oxazin-3-yl)-5-(trifluoromethyl)pyrimidine-2,4-diamine] was tested. Which Ki did it give?
Answer: 279 nM

Question: How did the Ki turn out when `CNc1nc(Nc2cnn3c2COCC3)ncc1C(F)(F)F` [Example 17, N2-(6,7-dihydro-4H-pyrazolo[5,1-c][1,4]oxazin-3-yl)-N4-methyl-5-(trifluoromethyl)pyrimidine-2,4-diamine] was run?
Answer: 2.3 nM

Question: `CNc1nc(Nc2cnn3c2C(C)OC(C)C3)ncc1C(F)(F)F` (stereo not shown) [Example 18, N2-(4,6-dimethyl-6,7-dihydro-4H-pyrazolo[5,1-c][1,4]oxazin-3-yl)-N4-methyl-5-(trifluoromethyl)pyrimidine-2,4-diamine] was tested. Which Ki did it give?
Answer: 1.8 nM

Question: For `CNc1nc(Nc2cnn3c2COC(C)(C)C3)ncc1C(F)(F)F` [Example 22, N2-(6,6-dimethyl-6,7-dihydro-4H-pyrazolo[5,1-c][1,4]oxazin-3-yl)-N4-methyl-5-(trifluoromethyl)pyrimidine-2,4-diamine], which Ki is on record?
Answer: 0.9 nM

Question: With `CCNc1nc(Nc2cnn3c2COC(C)(C)C3)ncc1C(F)(F)F` [Example 23, N2-(6,6-dimethyl-6,7-dihydro-4H-pyrazolo[5,1-c][1,4]oxazin-3-yl)-N4-ethyl-5-(trifluoromethyl)pyrimidine-2,4-diamine] as the compound, how does the Ki read?
Answer: 0.3 nM

Question: `CNc1nc(Nc2cnn3c2CCC3)ncc1C(F)(F)F` [Example 24, N2-(5,6-dihydro-4H-pyrrolo[1,2-b]pyrazol-3-yl)-N4-methyl-5-(trifluoromethyl)pyrimidine-2,4-diamine] was tested. Which Ki did it give?
Answer: 0.6 nM

Question: `CNc1nc(Nc2cnn3c2N(C)CC3)ncc1C(F)(F)F` [Example 25, N4-methyl-N2-(1-methyl-2,3-dihydro-1H-imidazo[1,2-b]pyrazol-7-yl)-5-(trifluoromethyl)pyrimidine-2,4-diamine] was tested. Which Ki did it give?
Answer: 31.2 nM

Question: For `CNc1nc(Nc2cnn3c2CN(C)CC3)ncc1C(F)(F)F` [Example 26, N^4-methyl-N^2-(5-methyl-4,5,6,7-tetrahydropyrazolo[1,5-a]pyrazin-3-yl)-5-(trifluoromethyl)pyrimidine-2,4-diamine], which Ki is on record?
Answer: 33.5 nM

Question: How did the Ki turn out when `CNc1nc(Nc2cnn3c2C2(COC2)OCC3)ncc1C(F)(F)F` [Example 27, N^2-(6′7′-dihydrospiro[oxetane-3,4′-pyrazolo[5,1-c][1,4]oxazine]-3-yl)-N^4-methyl-5-(trifluoromethyl)pyrimidine-2,4-diamine] was run?
Answer: 819 nM

Question: Which Ki does the source give for `CNc1nc(Nc2cc3n(n2)CCOC3)ncc1C(F)(F)F` [Example 30, N^2-(6,7-dihydro-4H-pyrazolo[5,1-c][1,4]oxazin-2-yl)-N^4-methyl-5-(trifluoromethyl)pyrimidine-2,4-diamine] here?
Answer: 10.9 nM
